Publication PMC13108699, “Mass balance and metabolite profiling of ^14C-Zalunfiban in humans following single-dose subcutaneous administration” (Xenobiotica; the fate of foreign compounds in biological …, 2025)

Test: Metabolite profiling of pooled whole blood, urine and faeces by LC radiochromatograms with AMS
Assay type: in vivo, human
Description: For metabolite profiling in whole blood, urine, and faeces, LC-MS/MS followed by AMS was used. The HPLC system included a 1290 Infinity Sampler, Binary Pump, and thermostat (Agilent, UK). The chromatographic method used an aqueous formic acid (MPA)/ammonium acetate:acetonitrile:methanol (MPB) gradient and a Scherzo SS-C18 HPLC column at a temperature of 40 °C with injection volumes of 50–200 microliters. The gradient was set at 90% MAP and 10% MPB. The mass spectrometer was a Q-Exactive system (Thermo Fisher Scientific, UK) and the AMS a single stage NEC SSAMS-250.
Single whole blood, faeces, and urine pools were created across subjects and radioactive regions representing 10% or more of the circulating radioactivity were analysed (e.g. 10% or more of the circulating radioactivity in whole blood or accounting for 10% or more of the administered radioactivity/dose in urine and faeces), To create the pool, an individual subject AUC pool was prepared, and a constant proportion of each subject pool was taken to create one cross-subject pool. The whole blood sample pool included samples from hours 0–144, the urine sample pool included samples from hours 0–48, and the faeces pool from hours 0–192.
Whole blood, faeces, and urine radiochromatograms were generated for each sample by collecting HPLC fractions at intervals of 2 (30 s) or 4 (15 s) per minute over the run time of 110 min.
Radiochromatograms were generated from AMS data using the LAURA V6 software (LabLogic, Sheffield, UK). Regions of interest were quantified and provisionally identified where possible by assignment of observed peaks in each radiochromatogram to either parent zalunfiban or M1 by retention time matching, with corresponding ^12C-reference standards obtained via LC-UV.
Assignment of parent and metabolites was made by matching retention times with synthesised standards at wavelengths of 210, 230, 254, 270, and 300 nm, using liquid chromatography ultraviolet chromatography (LC-UV).
For extraction of ^14C-zalunfiban from whole blood, weighed aliquots in microcentrifuge tubes were processed with vortex mixing and centrifugation. The supernatant was then harvested and the process repeated with the bullet material in the original tube using acetonitrile and then methanol. The combined aliquots then underwent AMS analysis to determine the extraction recovery. Once optimised, the final combined supernatant was dried under N2 gas at 40 °C and reconstituted with 1 mL methanol:water (20:80, v/v), with vortex mixing and sonication. This was followed by analysis by LC. The radioactivity extraction recovery for whole blood (AUC0–144h) was 54.5%,
For extraction of ^14C-zalunfiban from homogenised faeces, weighed aliquots in microcentrifuge tubes were processed with vortex mixing and centrifugation, and then diluted with acetonitrile, followed by additional mixing, centrifugation, and repeat extraction with methanol:water until optimised. Once optimised, the final combined supernatant was dried under N2 gas at 40 °C and reconstituted with methanol, followed by water, followed by vortex mixing, followed by analysis by LC. The radioactivity extraction recovery for faeces (0–192 h) was 100%.
Urine was not subjected to extraction. An aliquot was dispensed into an LC vial prior to analysis.

SMILES: NCC(=O)Nc1cncc(-c2nn3c(=O)cc(N4CCNCC4)nc3s2)c1 [Zalunfiban, 2-amino-N-{5-[5-oxo-7-(piperazin-1-yl)-5H-[1,3,4]thia-diazolo[3,2-a]pyrimidin-2-yl]pyridin-3-yl}acetamide]
- Percentage of dose excreted in urine (0–48 h): 1.31%
- Percentage of total radioactivity in urine (0–48 h cross-participant pooled sample): 1.59%
- Percentage of dose excreted in faeces (0–192 h): 0.0239%
- Percentage of total radioactivity in faeces (0–192 h pooled sample): 0.173%
- Percentage of total circulating radioactivity in whole blood (AUC0–144 cross-pooled whole blood extract): 46.9%
